According to article PMC8392721 (Journal of medicinal chemistry, 2021):

What was measured:
hNatB = hNatB (Homo sapiens, UniProt P61599)
NatD = NatD (Homo sapiens, UniProt Q86UY6); assay: biochemical
hNatD [1] = target: T1, hNatD (Homo sapiens, UniProt Q86UY6); details: radioactive assay; acetyl versus propionyl linker, tripeptide SGR
hNatD [2] = target: T1, hNatD; assay: biochemical
SpNatC [3] = details: from no inhibition at 10 μM
SpNatC [4] = target: SpNatC (Schizosaccharomyces pombe, UniProt O74311); details: at 10 μM; n = 3
hMOF = target: T2, hMOF (Homo sapiens, UniProt Q9H7Z6); assay: Selectivity assay, hMOF; assay type: biochemical
T2 sequence (Q9H7Z6 1-458): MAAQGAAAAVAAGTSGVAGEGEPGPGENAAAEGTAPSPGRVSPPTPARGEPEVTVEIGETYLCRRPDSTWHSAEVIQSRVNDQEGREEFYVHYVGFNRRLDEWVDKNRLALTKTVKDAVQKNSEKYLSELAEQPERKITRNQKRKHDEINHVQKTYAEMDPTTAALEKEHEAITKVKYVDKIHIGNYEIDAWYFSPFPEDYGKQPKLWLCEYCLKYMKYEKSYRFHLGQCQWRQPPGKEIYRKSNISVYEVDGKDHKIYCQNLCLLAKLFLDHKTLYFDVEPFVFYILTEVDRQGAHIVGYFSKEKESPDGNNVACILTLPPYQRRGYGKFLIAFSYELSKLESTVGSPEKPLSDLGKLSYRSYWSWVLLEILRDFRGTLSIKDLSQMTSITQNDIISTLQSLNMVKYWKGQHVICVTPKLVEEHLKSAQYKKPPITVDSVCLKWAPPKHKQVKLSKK

PCAF = PCAF (Homo sapiens, UniProt Q92831)
hNatA = target: T3, hNatA (Homo sapiens, UniProt P41227); assay: Selectivity assay, NatA; assay type: biochemical
T3 sequence (P41227 1-160 limits assumed): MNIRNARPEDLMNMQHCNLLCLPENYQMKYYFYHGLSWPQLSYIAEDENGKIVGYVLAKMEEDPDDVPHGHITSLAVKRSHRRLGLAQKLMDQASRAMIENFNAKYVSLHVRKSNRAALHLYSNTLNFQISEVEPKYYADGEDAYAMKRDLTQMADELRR
T3 sequence (Q9BXJ9 1-866 partner): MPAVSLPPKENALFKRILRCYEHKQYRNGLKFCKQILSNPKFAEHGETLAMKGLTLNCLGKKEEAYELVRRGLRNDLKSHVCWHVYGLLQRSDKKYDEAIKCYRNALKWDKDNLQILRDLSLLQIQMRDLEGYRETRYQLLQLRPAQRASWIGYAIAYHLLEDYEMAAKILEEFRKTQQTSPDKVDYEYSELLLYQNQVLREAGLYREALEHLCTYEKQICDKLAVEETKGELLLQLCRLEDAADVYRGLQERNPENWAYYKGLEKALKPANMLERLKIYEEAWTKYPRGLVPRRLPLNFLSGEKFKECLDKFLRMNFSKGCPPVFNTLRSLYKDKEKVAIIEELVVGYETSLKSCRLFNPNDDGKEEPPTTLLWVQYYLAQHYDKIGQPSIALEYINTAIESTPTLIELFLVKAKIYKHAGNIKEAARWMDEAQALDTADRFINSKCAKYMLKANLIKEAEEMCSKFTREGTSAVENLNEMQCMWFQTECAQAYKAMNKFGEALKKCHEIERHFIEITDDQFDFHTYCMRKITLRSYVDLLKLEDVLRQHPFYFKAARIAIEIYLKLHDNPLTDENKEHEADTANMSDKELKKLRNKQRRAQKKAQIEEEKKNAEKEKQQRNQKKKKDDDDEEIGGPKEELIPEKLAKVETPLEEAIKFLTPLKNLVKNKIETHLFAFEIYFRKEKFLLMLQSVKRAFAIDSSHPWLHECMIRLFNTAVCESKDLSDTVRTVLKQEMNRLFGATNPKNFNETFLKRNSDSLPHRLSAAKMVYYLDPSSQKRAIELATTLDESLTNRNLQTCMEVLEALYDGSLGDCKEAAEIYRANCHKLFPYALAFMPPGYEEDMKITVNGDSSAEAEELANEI

hNatE = hNatE (Homo sapiens, UniProt Q9GZZ1)
Sequence of hNatE (Q9GZZ1 whole entry, one chain of several): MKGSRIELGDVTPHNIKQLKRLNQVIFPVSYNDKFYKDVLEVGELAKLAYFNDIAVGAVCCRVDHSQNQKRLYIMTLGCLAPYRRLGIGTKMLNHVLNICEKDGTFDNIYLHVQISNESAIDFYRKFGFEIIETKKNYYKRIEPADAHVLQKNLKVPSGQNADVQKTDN

Sequence of hNatB (P61599 1-163 limits assumed): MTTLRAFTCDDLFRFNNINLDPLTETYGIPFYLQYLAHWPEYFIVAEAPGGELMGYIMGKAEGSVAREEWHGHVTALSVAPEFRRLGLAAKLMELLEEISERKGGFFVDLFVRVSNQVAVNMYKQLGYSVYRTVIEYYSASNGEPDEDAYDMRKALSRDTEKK
Sequence of hNatB (Q14CX7 whole entry partner): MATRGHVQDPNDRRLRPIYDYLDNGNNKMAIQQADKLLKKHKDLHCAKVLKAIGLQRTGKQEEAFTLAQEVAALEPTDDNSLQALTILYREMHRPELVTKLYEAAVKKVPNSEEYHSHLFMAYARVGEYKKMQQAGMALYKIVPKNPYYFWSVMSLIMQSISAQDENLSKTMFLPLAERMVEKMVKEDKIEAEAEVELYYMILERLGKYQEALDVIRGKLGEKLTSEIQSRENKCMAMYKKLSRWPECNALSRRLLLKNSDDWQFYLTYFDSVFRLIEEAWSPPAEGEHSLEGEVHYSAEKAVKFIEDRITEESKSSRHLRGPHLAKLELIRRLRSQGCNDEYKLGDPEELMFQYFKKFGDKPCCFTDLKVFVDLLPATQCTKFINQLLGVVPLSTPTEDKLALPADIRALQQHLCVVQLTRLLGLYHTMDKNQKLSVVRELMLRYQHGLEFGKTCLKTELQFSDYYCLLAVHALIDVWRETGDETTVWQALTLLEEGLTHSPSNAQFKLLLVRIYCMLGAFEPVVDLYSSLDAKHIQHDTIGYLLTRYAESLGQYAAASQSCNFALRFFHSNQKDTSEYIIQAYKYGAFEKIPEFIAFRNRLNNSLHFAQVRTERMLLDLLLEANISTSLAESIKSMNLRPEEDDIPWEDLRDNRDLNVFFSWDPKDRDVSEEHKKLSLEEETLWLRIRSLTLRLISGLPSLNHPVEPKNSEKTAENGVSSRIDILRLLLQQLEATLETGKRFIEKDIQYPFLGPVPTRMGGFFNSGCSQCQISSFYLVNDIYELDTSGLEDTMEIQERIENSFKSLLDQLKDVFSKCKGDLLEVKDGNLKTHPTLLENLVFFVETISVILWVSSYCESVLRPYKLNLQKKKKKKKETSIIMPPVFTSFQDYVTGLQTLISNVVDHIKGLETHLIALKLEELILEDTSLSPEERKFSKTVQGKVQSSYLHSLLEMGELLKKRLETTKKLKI
Sequence of PCAF (Q92831 whole entry): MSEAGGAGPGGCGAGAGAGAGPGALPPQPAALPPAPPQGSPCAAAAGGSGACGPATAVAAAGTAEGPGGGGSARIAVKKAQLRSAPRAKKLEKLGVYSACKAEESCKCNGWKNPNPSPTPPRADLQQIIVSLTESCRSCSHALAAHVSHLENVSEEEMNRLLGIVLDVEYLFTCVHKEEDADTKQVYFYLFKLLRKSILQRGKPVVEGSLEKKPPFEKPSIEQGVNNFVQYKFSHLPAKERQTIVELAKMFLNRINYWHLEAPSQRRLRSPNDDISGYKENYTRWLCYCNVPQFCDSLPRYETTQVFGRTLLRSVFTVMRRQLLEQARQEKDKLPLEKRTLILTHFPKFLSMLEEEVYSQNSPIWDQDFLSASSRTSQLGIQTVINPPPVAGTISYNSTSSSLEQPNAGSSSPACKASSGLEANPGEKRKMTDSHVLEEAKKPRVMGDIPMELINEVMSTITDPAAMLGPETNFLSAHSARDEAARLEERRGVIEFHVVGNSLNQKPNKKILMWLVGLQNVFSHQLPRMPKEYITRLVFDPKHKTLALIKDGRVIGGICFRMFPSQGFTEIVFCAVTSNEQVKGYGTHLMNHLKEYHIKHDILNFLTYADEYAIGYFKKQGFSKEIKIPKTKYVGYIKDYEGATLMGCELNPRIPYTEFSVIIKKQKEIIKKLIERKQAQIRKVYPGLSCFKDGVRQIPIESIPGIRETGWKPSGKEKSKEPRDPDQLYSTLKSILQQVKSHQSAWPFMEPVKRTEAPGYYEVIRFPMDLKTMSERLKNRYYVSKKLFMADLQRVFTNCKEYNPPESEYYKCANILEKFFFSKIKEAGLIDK
Sequence of SpNatC (Schizosaccharomyces pombe, UniProt O74311) (O74311 whole entry): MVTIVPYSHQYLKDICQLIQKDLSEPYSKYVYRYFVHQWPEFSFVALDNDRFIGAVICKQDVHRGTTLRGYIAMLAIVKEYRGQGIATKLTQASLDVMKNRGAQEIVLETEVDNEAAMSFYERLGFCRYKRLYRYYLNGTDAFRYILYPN

CC(C)(COP(=O)(O)OP(=O)(O)OC[C@H]1O[C@@H](n2cnc3c(N)ncnc32)[C@H](O)[C@@H]1OP(=O)(O)O)[C@@H](O)C(=O)NCCC(=O)NCCSCC(=O)N[C@@H](CO)C(=O)NCC(=O)N[C@@H](CCCNC(=N)N)C(N)=O [Compound 7, CoA-C2-SGR]
inhibition towards NatB (hNatB; at 10 μM, n = 3): did not show any inhibition | selectivity for NatD over NatB (hNatB; from no inhibition at 10 μM): over 10,000 fold | IC50 (NatD): 29 ± 5.6 nM | fold more potent than 8 (hNatD [1]): 2 fold | IC50 (hNatD [2]): 16 ± 4.9 nM | selectivity for NatD over NatC (SpNatC [3]): over 10,000 fold | inhibition towards NatC (SpNatC [4]): did not show any inhibition | IC50 (hMOF): > 100 nM | inhibition towards PCAF (PCAF; at 10 μM, n = 3): did not show any inhibition | selectivity for NatD over PCAF (PCAF; from no inhibition at 10 μM): over 10,000 fold | IC50 (hNatA): > 100 nM | inhibition towards NatE (hNatE; at 10 μM, n = 3): did not show any inhibition | selectivity for NatD over NatE (hNatE; from no inhibition at 10 μM): over 10,000 fold
